# Reference: patent US20160199364A1, “SEIZURE TREATMENT COMPOSITIONS AND METHODS” (Creighton University, priority 2015, published 2016)
# Assays:
# [1] = test system: spontaneous recurrent seizures in epileptic Kv1.1 knockout (KO) mice; assay: Spontaneous recurrent seizures by 24 hr video-EEG (seizure incidence, seizure burden index); assay type: in vivo, mouse
# Procedure: (§1) Dietary and pharmacological treatments. […] For dietary experiments involving Kv1.1WT and Kv1.1KO mice, drinking water contained either 0.0323% DMSO vehicle or GW9662 ([…]) to obtain an average dosage of 1.062±0.038 mg/kg/day (n=18). There was no difference in the average daily water consumption or resulting GW9662 dosage between experimental groups (see FIG. 2H). […] Three hours after the last pioglitazone injection, mice were euthanized and brains processed for western blot, electrophysiology, or mitochondria experiments.
# Intracranial electroencephalography electrode implantation and seizure analysis. On P27, mice underwent surgical implantation of electrodes. Mice were maintained under isoflurane anesthesia and normothermic conditions. One ground (1.5 mm anterior lamba, 1.5 mm lateral) and two subdural (1 mm posterior Bregma, 1.5 mm bilateral) intracranial cortical electroencephalographic (iEEG) electrodes were implanted, secured, and attached to a headmount. […] EEG recordings were acquired with a 250 Hz sampling rate and band-pass filtered between 0.5 and 40 Hz. During seizure monitoring, mice were single-housed in hexagon cages. EEG recordings were imported into Spike2 v6-7 software (Cambridge Electronic Design, Cambridge, England) for initial seizure identification using time-frequency analysis. […] Incidence and severity of each seizure was scored for the first 15 minutes of each hour during the time period of highest seizure occurrence for Kv1.1KO mice (00:00-08:00). Seizure severity was scored using a modified Racine scale: 0—normal; 1—myoclonic jerk or “pop;” 2—side-to-side head movement; 3—forelimb/hindlimb clonus, tail extension, a single rearing event; 4—continuous rearing and falling; 5—severe tonic-clonic seizures. To weigh the incidence and severity of seizures, seizure burden index (SBI) scores were calculated using the equation: SBI=[Σ(σiγi)]/ε, where σ indicates the severity; i indicates each stage of seizure (1-5); γ is the incidence; and ε indicates the total number of epochs scored.
# [2] = Body weight; assay type: in vivo, mouse; conditions: pioglitazone 10 mg/kg/day i.p., five days; Kv1.1WT or Kv1.1KO mice
# [3] = test system: hippocampal mossy fiber-CA3 synapse and CA3 network; assay: Acute hippocampal slice multielectrode array recordings after in vivo treatment; parameters: species or system mouse; conditions: Kv1.1KO mice treated in vivo (pioglitazone 10 mg/kg/day i.p. or KD), hippocampal slices
# Procedure: as §1
# Acute hippocampal slice preparation and multielectrode array recordings. […] Spontaneous and evoked extracellular potentials were recorded with Mobius v2 software (Witwerx Inc., Tustin, Calif., USA) and acquired at a 20 kHz sampling rate with a bandwidth of 0.1 Hz-10 kHz. Post-synaptic field potentials and short-term plasticity of the mossy fiber (MF)-CA3 synapse were obtained by successive paired stimulations (50 ms inter-stimulus interval, 50% maximal intensity) of Dentate granule cell mossy fibers located in the hilar region and recorded in CA3 stratum lucidum. Paired pulse facilitation was calculated by dividing the slope (10-90%) of stimulation 2 by the slope of stimulation 1 and presented as the percent above stimulation 1. […]
# [4] = test system: mitochondrial respiratory complex I (MRCI); assay: Oxygen polarography of isolated cortical mitochondria after in vivo treatment; parameters: species or system mouse; conditions: Kv1.1KO mice treated in vivo (pioglitazone 10 mg/kg/day i.p. or KD)
# Procedure: as §1
# Mitochondrial isolation and oxytherm polarography. Mice were anesthetized with isoflurane and cortical tissue was quickly micro-dissected on ice. Tissue was homogenized in isolation buffer (5×V/V in mM: 215 mannitol, 75 sucrose, 1 EGTA 20 HEPES and 0.1% BSA, pH 7.2 adjusted with KOH) and mitochondria were isolated using differential centrifugation. Isolated mitochondria were resuspended in isolation buffer without EGTA. Protein concentrations were determined with Bradford assay. […] Oxygen polarography was measured using a standard Clark-type electrode (Hanstech Instruments, Ltd., Norfolk, England). […] Only samples with a respiratory control ratio greater than 4 were analyzed. Unbiased assessment of the rate of oxygen consumption was determined using computer-generated line of best-fit algorithm and nmol of oxygen mg^−1 min^−1 was calculated.
Structure (SMILES),"KD anti-seizure efficacy ([1]; GW9662 ~1 mg/kg/day co-administered throughout KD treatment, Kv1.1KO mice)","Kv1.1KO seizures (worsening) ([1]; GW9662 ~1 mg/kg/day in drinking water, Kv1.1KO mice)","induction of spontaneous seizures in WT mice ([1]; GW9662 ~1 mg/kg/day in drinking water, WT mice)",body weight [2],attenuation of HFO (high frequency oscillation) incidence ([3]; CA3 network) [%],increase of mossy fiber paired pulse facilitation [3] [%],improvement of mitochondrial respiration (MRCI State III) [4] [%]
O=C(Nc1ccccc1)c1cc([N+](=O)[O-])ccc1Cl [GW9662],prevented,did not worsen,did not,–,–,–,–
CCc1ccc(CCOc2ccc(CC3SC(=O)NC3=O)cc2)nc1 (stereo not shown) [pioglitazone],–,–,–,did not change,~60,~45,~80
